pIC50: −log10 of the molar value.

The test system of one data set is apoB-100. The experiment in a line: Inhibition of apoB-100 secretion by primary human hepatocytes (35S-methionine labelling, SDS PAGE, Phosphorimager). Particulars: Homo sapiens, Hepatocyte, 8 h, 8 hours incubation, tested from 1 μM to 1.6 nM, secretion of radiolabeled apoB-100, untreated cells as controls. It counts as cell-based. Here is the method: The ability of the compounds of the invention to inhibit the production of apoB-100 by human hepatocytes in vitro is determined using primary human hepatocytes as a model system. The specificity of the compounds of the invention is established by comparing the effects on apoB-100, apoprotein A-1, and fibrinogen production. A specificity of at least 100 is preferred.
Primary human hepatocytes were seeded at 50 000 cells/well in 96 well plates. After an overnight adhesion phase, cells were incubated with compounds for 8 hours in RPMI medium containing 1% FCS, 4 μg/ml insulin, 100 nM dexamethasone and 50 μCi/ml ^35S-methionine. […] Production of radiolabeled apoB-100 and apoA-1 (used as a selectivity control) was quantified by analysis of supermatants using SDS AGE and exposure of gels onto Phosphorimager screens. Inhibition of apo-100 and apoA-1 secretion by compounds was calculated taking untreated cells as controls, and IC50 of each compound was determined on both apoproteins.

With `Cc1ccc(C(=O)Nc2ccc(N3CCN(Cc4cccc(C#N)c4)CC3)cc2)c(-c2ccc(C(C)C)cc2)c1` [Example 2, 4′-Isopropyl-5-methyl-biphenyl-2-carboxylic Acid [4-[4-(3-cyano-benzyl)-piperazin-1-yl]-phenyl]-amide], the melting point was in the range of 167 to 169 °C. The compound also had a pIC50 in the data set with apoB-100 of 7.74.

Source of the values: patent US6552022B1, “Benzamide derivatives and their use as ApoB-100 secretion inhibitors” (SmithKline Beecham Corporation, priority 1998, dated 2003).
